Assay results: patent US9102636B2, “Analgesic compounds, compositions, and uses thereof” (Galleon Pharmaceuticals, Inc., priority 2010, dated 2015)
Values joined by “and” are separate entries in the source; they are usually repeats but may differ in a detail not shown here. Identical values can stand only once. “Also recorded” adds a separate entry of the source.

Key:
[1] = system: hyperalgesia following incisional surgery; test: Established incisional hyperalgesia, dosing 24 hours after surgery; type: in vivo; details: rat; given 24 hours after surgical incision; FIG. 10
[2] = system: spinal nerve ligation induced tactile allodynia; test: Spinal nerve ligation (SNL, Chung model) induced tactile allodynia (von Frey filaments); type: in vivo, rat; details: for Paw threshold / Paw withdrawal threshold: individual animals; for Paw withdrawal threshold: non-fasted
PC12 cells = test: Inhibition of peroxynitrite (SIN-1) mediated cytotoxicity, ATPlite; type: cell-based; details: Rattus norvegicus, PC-12, SIN-1 overnight, average of two plates
Description: ATPlite is an Adenosine TriPhosphate monitoring system based on firefly luciferase. ATP monitoring was used as a measure of PC12 cell viability, as it is present in all metabolically active cells and its concentration very rapidly declines as cells undergo necrosis and apoptosis. ATPlite is based upon the production of light given off during the reaction of ATP & D-Luciferin in the presence of Luciferase. The emitted light is proportional to the ATP concentration. Compounds of the invention were assessed for their ability to inhibit SIN-1 induced cell toxicity. Inhibitory concentrations, IC50 values, were calculated by testing compounds of the invention at various concentrations and averaging the IC50 of two plates.
All cell work was carried out under the cell culture hood in a sterile environment. […] The cells were counted in the 4 large corner quadrants of the hemacytometer under the inverted microscope at 10× and the average of the 4 quadrants was calculated. Blue cells were not counted as these cells represented non-viable cells. The number of cells present in 1 mL of media was determined using the following equation: cells/mL=(# cells counted/# squares counted)×10^4×dilution factor. […]
On Day 3, 10.25 ml of ATPlite buffer was added to 1 vial of lyophilized substrate solution (ATPlite 1 step luminescence ATP detection Assay system (Perkin Elmer, #6016731)). […]

[3] = system: FCA induced thermal hyperalgesia; test: FCA induced thermal hyperalgesia (Hargreaves); type: in vivo, rat; details: for Paw withdrawal latency: individual rats, FIG. 18A
Protocol: Compound 2 was evaluated in the rat Freund's complete adjuvant (FCA) model of inflammatory pain. The rat Freund's complete adjuvant (FCA) intraplantar model of inflammatory pain produces behaviors similar to those observed in patients and has been widely used to assess novel pharmacological treatments (Lam et al., 2008, J Ethnopharmacol. 120:44-50). The positive control was celecoxib (TRC, Montreal), and the negative control was vehicle (0.5% methyl cellulose, in phosphate buffered saline). […] The Hargreaves apparatus was obtained from Ugo Basile, Italy. The Freund's complete adjuvant was obtained from Sigma, St. Louis, and the electronic von frey was obtained from Stoelting, Ill. For this assay, paw withdrawal latency to a thermal stimulus was assessed using a radiant heat source (Ugo Basile, Italy) aimed at the plantar surface of the left hind paw (Hargreaves test; […] Paw withdrawal thresholds to a non-noxious tactile stimulus was assessed using an electronic von Frey apparatus that presented an increasing mechanical force to the plantar surface of the hind paw. Paw volume was measured by displacement of water and assuming a tissue density equal to that of water. […] Celecoxib (30 mg/kg p.o.) served as the positive control. […] After induction of anesthesia, the injection site was prepared in a sterile manner and 100 μl of a 50% suspension of FCA injected. After injection, animals were weighed and allowed to recover before being returned to their home cages. Statistical significance was determined on untransformed data using a two-way analysis of variance (Graphpad Prism, NC). Significant main effects were analyzed further by subsequent Bonferronni post-hoc test. The level of significance was set at p<0.05. Data are shown as mean±S.E.M. (with an asterisk to denote significance as compared to vehicle treated controls).

## CC1(C)SC(Nc2ccccc2O)=N[C@@H]1C(=O)O [Compound 2, (R)-2-(2-hydroxyphenylamino)-thiazoline-5,5-dimethyl-4-carboxylic acid]
[1]
  reversal of hyperalgesia following incisional surgery: reverses hyperalgesia following incisional surgery
[2]; FIG. 25, compound 2 30 mg/kg p.o. once on the day of surgery, 1 wk, 30 mg/kg
  Paw threshold: 1.85 g and 1.18 g and 2.81 g and 4.47 g and 6.4 g and 2.2 g and 15 g and 4.25 g
[2]; FIG. 25, compound 2 30 mg/kg p.o. once on the day of surgery, 2 wks, 30 mg/kg
  Paw threshold: 1.65 g and 2.81 g and 2 g (2×) and 3.73 g and 0.99 g and 5.56 g and 5.04 g
[2]; FIG. 25, compound 2 30 mg/kg p.o. once on the day of surgery, Pre-Sx
  Paw threshold: 15 g
[2]; FIG. 26, compound 2 30 mg/kg p.o. QD on days 1-5 post-surgery, 1 wk, 30 mg/kg
  Paw threshold: 15 g (4×) and 11.41 g and 3.13 g and 1.18 g and 6.66 g
[2]; FIG. 26, compound 2 30 mg/kg p.o. QD on days 1-5 post-surgery, 2 wks, 30 mg/kg
  Paw threshold: 13.96 g (2×) and 4.25 g and 5.37 g and 11.69 g and 2.8 g and 8.44 g and 7.94 g
[2]; FIG. 26, compound 2 30 mg/kg p.o. QD on days 1-5 post-surgery, 3 wks, 30 mg/kg
  Paw threshold: 7.53 g and 6.64 g and 4.98 g and 2.2 g and 4.4 g and 2.38 g and 10.31 g and 15 g
[2]; FIG. 26, compound 2 30 mg/kg p.o. QD on days 1-5 post-surgery, Pre-Sx, 30 mg/kg
  Paw threshold: 15 g (7×) and 11.69 g
[2]; compound 2 10 mg/kg p.o., 1 hr (D1), 10 mg/kg
  Paw withdrawal threshold: 1.56 g and 4.98 g and 4.25 g (2×) and 15 g and 3.13 g and 2.81 g and 4.4 g
[2]; compound 2 10 mg/kg p.o., 1 hr (D2), 10 mg/kg
  Paw withdrawal threshold: 1.31 g and 1.85 g (3×) and 2.38 g and 2.64 g and 1.65 g and 1.4 g
[2]; compound 2 10 mg/kg p.o., 1 hr (D3), 10 mg/kg
  Paw withdrawal threshold: 0.44 g and 3.67 g and 1.85 g and 7.94 g and 3.33 g and 2 g and 2.81 g and 4.4 g
[2]; compound 2 10 mg/kg p.o., 3 hrs (D1), 10 mg/kg
  Paw withdrawal threshold: 2 g and 7.94 g and 1.4 g and 15 g and 2.81 g and 2.64 g and 1.85 g and 3.57 g
[2]; compound 2 10 mg/kg p.o., 3 hrs (D2), 10 mg/kg
  Paw withdrawal threshold: 0.4 g and 1.56 g (2×) and 11.69 g and 2.81 g and 2.37 g and 2 g and 3.71 g
[2]; compound 2 10 mg/kg p.o., 3 hrs (D3), 10 mg/kg
  Paw withdrawal threshold: 0.99 g and 2.37 g and 1.56 g and 2.38 g and 2.81 g (2×) and 0.65 g and 3.33 g
[2]; compound 2 10 mg/kg p.o., Pre-Drug, 10 mg/kg
  Paw withdrawal threshold: 2.2 g and 3.13 g (2×) and 4.25 g and 3.58 g and 3.73 g and 4.4 g and 2.64 g
[2]; compound 2 10 mg/kg p.o., Pre-Sx, 10 mg/kg
  Paw withdrawal threshold: 11.69 g and 15 g (7×)
[2]; compound 2 50 mg/kg p.o., 1 hr (D1), 50 mg/kg
  Paw withdrawal threshold: 2.81 g (2×) and 6.64 g and 5.56 g (2×) and 3.67 g and 4.23 g and 4.98 g
[2]; compound 2 50 mg/kg p.o., 1 hr (D2), 50 mg/kg
  Paw withdrawal threshold: 1.19 g and 2.81 g and 3.12 g and 7.94 g
[2]; compound 2 50 mg/kg p.o., 3 hrs (D1), 50 mg/kg
  Paw withdrawal threshold: 1.18 g and 3.13 g (2×) and 3.33 g and 6.66 g (2×) and 6.64 g and 4.7 g
[2]; compound 2 50 mg/kg p.o., Pre-Drug, 50 mg/kg
  Paw withdrawal threshold: 2.81 g (2×) and 3.33 g and 3.73 g and 2.2 g and 5.04 g and 4.25 g and 3.58 g
[2]; compound 2 50 mg/kg p.o., Pre-Sx
  Paw withdrawal threshold: 15 g
[2]; rat, 30 mg/kg p.o. immediately following surgery, assessed 1 and 2 weeks later, FIG. 25
  development of SNL tactile allodynia, single administration: a significant difference between treated animals and vehicle controls was not noted
[2]; rat, 30 mg/kg p.o. once a day for 5 days starting on day of surgery, 1, 2 and 3 weeks post surgery, FIG. 26
  development of SNL tactile allodynia, repeated administration: significant reduction in tactile allodynia
[2]; rat, 50 mg/kg p.o., 48 hrs later, FIG. 24
  reversal of SNL tactile allodynia, fasted animals, subsequent administrations: failed to produce a statistically significant effect
[2]; rat, 10 and 50 mg/kg p.o., any time point after any of three administrations, FIG. 23
  reversal of SNL tactile allodynia, non-fasted animals: did not produce a statistically significant difference from vehicle treated animals
PC12 cells
  IC50: 3.7 µM
[3]; baseline (prior to FCA)
  Paw withdrawal latency: 16.6 s and 17.55 s and 20.74 s and 20.9 s and 20.6 s and 19.33 s
[3]; day 1, compound 2 25 mg/kg i.v. preemptive, 25 mg/kg
  Paw withdrawal latency: 14.4 s and 156.3 s and 15.1 s (2×) and 15.7 s and 22.7 s
[3]; day 3, compound 2 25 mg/kg i.v. preemptive, 25 mg/kg
  Paw withdrawal latency: 12.5 s and 19.12 s and 19.5 s (2×) and 15.7 s and 17.7 s
[3]; day 4, compound 2 25 mg/kg i.v. preemptive, 25 mg/kg
  Paw withdrawal latency: 14 s and 16.25 s and 16.51 s (2×) and 16.6 s and 18.2 s
[3]; rat, single dose 25 mg/kg i.v. preemptive, significant 72 hours post-FCA, 25 mg/kg
  FCA thermal hyperalgesia (finding in words): prevented the development; also recorded: significantly prevented
